How the values were obtained:
[1] = Stability of subtilin: activity retained after storage or exposure to light
[2] = 120 h

Row | Substance | loss of activity on exposure to light ([1]; exposure to light) | loss of activity on storage ([1]; stored at 4° C. or 20° C.) | activity remaining after storage [2]
1 | subtilin | rapid loss of activity | loses activity rapidly | –
2 | subtilin [stable subtilin] | – | – | greater than 50%

Source: patent US20050026270A1 (University of Maryland, priority 1999, published 2005)
